The values below come from patent US10844017B2, “Biaryl compound, preparation method and use thereof” (FUDAN UNIVERSITY, priority 2017, dated 2020).

The term EC50 denotes the concentration needed to bring the measured effect to its halfway point.

The target in the assay is T1, RORγ receptor (B-RORγ LBD / Bioin-SRC1) (Homo sapiens, UniProt P51449).
T1 construct: 40 nM B-RORγ LBD solution
T1 sequence (P51449 269-508 limits assumed): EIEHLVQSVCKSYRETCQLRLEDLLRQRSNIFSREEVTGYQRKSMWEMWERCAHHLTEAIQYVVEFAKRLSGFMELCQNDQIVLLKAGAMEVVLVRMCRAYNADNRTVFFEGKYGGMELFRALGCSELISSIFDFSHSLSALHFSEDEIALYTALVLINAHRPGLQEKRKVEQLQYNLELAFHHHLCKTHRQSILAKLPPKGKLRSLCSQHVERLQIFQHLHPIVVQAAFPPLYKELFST
T1 sequence (Q15788 676-700 partner limits assumed): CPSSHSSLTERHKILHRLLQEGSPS
Briefly: Determination of agonistic activities on RORγ receptors in vitro (dual FRET). As to conditions: average of at least two independent experiments. The class given is biochemical. As for the experimental part:
Determination of Agonistic Activities of Compounds on RORγ Receptors In Vitro The agonistic activities of compounds described herein on RORγ receptor were determined by dual fluorescence resonance energy transfer (dual FRET) experiments. The agonistic activity was expressed by half maximum effect concentration (EC50).
1) Preparation of RORγ Assay Buffer
100 mL of buffer solution was well mixed with […] DTT for use.
2) Preparation of Solutions of Compounds
3) Preparation of protein mixtures a) 40 nM B-RORγ LBD solution was mixed well with 20 nM SA-APC solution and incubated for 15 minutes at room temperature. Then the resulting mixture was further mixed well with 400 nM Biotin and incubated for another 10 minutes at room temperature. […]
b) 40 nM Bioin-SRC1 solution was mixed well with 10 nM SA-eu solution and was incubated for 15 minutes at room temperature. Then the resulting mixture was further mixed well with 200 nM Biotin and was incubated for another 10 minutes at room temperature. […]
d) A mixture (25 μL) of B-RORγ LBD/SA-APC and Bioin-SRC1/SA-eu together with a test compound was added to one of the wells of a 384-well plate, and then the plate was centrifuged for one minute at 1000 rpm, and incubated at room temperature for one hour. The data were read on an Envision microplate detector and EC50 values were calculated.
In turn, `CCC(=O)Nc1cc(Cl)c(-c2ccc(CC(C)C)c(C#N)c2)c(Cl)c1` [Example 1, N-(2,6-Dichloro-3′-cyano-4′-isobutyl-[1,1′-biphenyl]-4-yl)propionamide] had a concentration for a half-maximal effect (EC50) of 0.01 to 0.05 µM.
Then `CC(C)Cc1ccc(-c2c(Cl)cc(NC(=O)c3ccccc3)cc2Cl)cc1C#N` [Example 3, N-(2,6-Dichloro-3′-cyano-4′-isobutyl-[1,1′-biphenyl]-4-yl)benzamide], with 0.05 to 0.1 µM.
As to `CC(C)CC(=O)Nc1cc(Cl)c(-c2ccc(CC(C)C)c(C#N)c2)c(Cl)c1` [Example 4, N-(2,6-dichloro-3′-cyano-4′-isobutyl-[1,1′-biphenyl]-4-yl)-3-methylbutanamide], the EC50 lay within 0.01 to 0.05 µM.
`CC(C)Cc1ccc(-c2c(Cl)cc(NC(=O)Cc3ccccc3)cc2Cl)cc1C#N` [Example 7, N-(2,6-Dichloro-3′-cyano-4′-isobutyl-[1,1′-biphenyl]-4-yl)-2-phenylacetamide] came in with an EC50 of 0.01 to 0.05 µM.
Then `CC(C)Cc1ccc(-c2c(Cl)cc(NC(=O)Cc3ccc(=O)[nH]c3)cc2Cl)cc1C#N` [Example 8, N-(2,6-Dichloro-3′-cyano-4′-isobutyl-[1,1′-biphenyl]-4-yl)-2-(6-oxo-1,6-dihydropyridin-3-yl)acetamide], with 0.01 to 0.05 µM.
The compound `CC(C)Cc1ccc(-c2c(Cl)cc(NC(=O)Cc3ccnn3C)cc2Cl)cc1C#N` [Example 9B, N-(2,6-dichloro-3′-cyano-4′-isobutyl-[1,1′-biphenyl]-4-yl)-2-(1-methyl-1H-pyrazol-5-yl)acetamide] returned an EC50 of 0.01 to 0.05 µM.
In the case of `CC(C)Cc1ccc(-c2c(Cl)cc(NC(=O)Cc3ccc(C#N)cc3)cc2Cl)cc1C#N` [Example 10, 2-(4-Cyanophenyl)-N-(2,6-dichloro-3′-cyano-4′-isobutyl-[1,1′-biphenyl]-4-yl)acetamide], the EC50 is 0.01 to 0.05 µM.
Then `CC(C)Cc1ccc(-c2c(Cl)cc(NC(=O)Cc3cccc(C#N)c3)cc2Cl)cc1C#N` [Example 12, 2-(3-cyanophenyl)-N-(2,6-dichloro-3′-cyano-4′-isobutyl-[1,1′-biphenyl]-4-yl)acetamide], with 0.01 to 0.05 µM; and `CC(C)Cc1ccc(-c2c(Cl)cc(NC(=O)Cc3cccnc3)cc2Cl)cc1C#N` [Example 14, N-(2,6-Dichloro-3′-cyano-4′-isobutyl-[1,1′-biphenyl]-4-yl)-2-(pyridin-3-yl)acetamide], with 0.01 to 0.05 µM.
With `CC(C)Cc1ccc(-c2c(Cl)cc(NC(=O)Cc3ccncc3)cc2Cl)cc1C#N` [Example 15, N-(2,6-Dichloro-3′-cyano-4′-isobutyl-[1,1′-biphenyl]-4-yl)-2-(pyridin-4-yl)acetamide] the figure was 0.01 to 0.05 µM.
Turning to `CC(C)Cc1ccc(-c2c(Cl)cc(NC(=O)Cc3cccc(S(C)(=O)=O)c3)cc2Cl)cc1C#N` [Example 18, N-(2,6-Dichloro-3′-cyano-4′-isobutyl-[1,1′-biphenyl]-4-yl)-2-(3-(methylsulfonyl)phenyl)acetamide], the 50% effective concentration (EC50) is 0.01 to 0.05 µM.
`CNS(=O)(=O)c1ccc(CC(=O)Nc2cc(Cl)c(-c3ccc(CC(C)C)c(C#N)c3)c(Cl)c2)cc1` [Example 22, N-(2,6-Dichloro-3′-cyano-4′-isobutyl-[1,1′-biphenyl]-4-yl)-2-(4-(N-methylsulfamoyl)phenyl)acetamide] displayed an EC50 of 0.01 to 0.05 µM.
`CC(C)Cc1ccc(-c2c(Cl)cc(NC(=O)Cc3ccc(P(C)(C)=O)cc3)cc2Cl)cc1C#N` [Example 23, N-(2,6-Dichloro-3′-cyano-4′-isobutyl-[1,1′-biphenyl]-4-yl)-2-(4-(dimethylphosphoryl)phenyl)acetamide] gave an EC50 of 0.01 to 0.05 µM.
With `CC(C)Cc1ccc(-c2c(Cl)cc(NC(=O)Cc3ccc(CC(=O)O)cc3)cc2Cl)cc1C#N` [Example 25, 2-(4-(2-((2,6-Dichloro-3′-cyano-4′-isobutyl-[1,1′-biphenyl]-4-yl)amino)-2-oxoethyl)phenyl)acetic acid], the EC50 was less than 0.01 µM.
